Measurements reported in PubChem BioAssay (NCI).
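Test compounds were applied to cells in 96-well plates for 48 hours at 5 doses. GI50 = concentration required for 50% inhibition of growth. At the TGI there is no net growth.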

Key:
Test in all cases: inhibition of tumour cell growth, NCI panel, 48 h
786-0 renal = system: 786-0 renal
A498 renal = system: A498 renal
A549 NSCLC = system: A549 NSCLC
ACHN renal = system: ACHN renal
BT-549 breast = system: BT-549 breast
CAKI-1 renal = system: CAKI-1 renal
CCRF-CEM leukemia = system: CCRF-CEM leukemia
COLO 205 colon = system: COLO 205 colon
DU-145 prostate = system: DU-145 prostate
EKVX NSCLC = system: EKVX NSCLC
HCC-2998 colon = system: HCC-2998 colon
HCT-116 colon = system: HCT-116 colon
HCT-15 colon = system: HCT-15 colon
HL-60(TB) leukemia = system: HL-60(TB) leukemia
HOP-62 NSCLC = system: HOP-62 NSCLC
HOP-92 NSCLC = system: HOP-92 NSCLC
HS 578T breast = system: HS 578T breast
HT29 colon = system: HT29 colon
IGROV1 ovarian = system: IGROV1 ovarian
K-562 leukemia = system: K-562 leukemia
KM12 colon = system: KM12 colon
LOX IMVI melanoma = system: LOX IMVI melanoma
M14 melanoma = system: M14 melanoma
MALME-3M melanoma = system: MALME-3M melanoma
MCF7 breast = system: MCF7 breast
MDA-MB-231 breast = system: MDA-MB-231 breast
MDA-MB-435 = system: MDA-MB-435
MDA-N = system: MDA-N
MOLT-4 leukemia = system: MOLT-4 leukemia
NCI-H226 lung = system: NCI-H226 lung
NCI-H23 lung = system: NCI-H23 lung
NCI-H460 lung = system: NCI-H460 lung
NCI-H522 lung = system: NCI-H522 lung
NCI/ADR-RES ovarian = system: NCI/ADR-RES ovarian
OVCAR-3 ovarian = system: OVCAR-3 ovarian
OVCAR-4 ovarian = system: OVCAR-4 ovarian
OVCAR-5 ovarian = system: OVCAR-5 ovarian
OVCAR-8 ovarian = system: OVCAR-8 ovarian
PC-3 prostate = system: PC-3 prostate
RPMI-8226 leukemia = system: RPMI-8226 leukemia
RXF 393 renal = system: RXF 393 renal
SF-268 CNS = system: SF-268 CNS
SF-295 CNS = system: SF-295 CNS
SF-539 CNS = system: SF-539 CNS
SK-MEL-2 melanoma = system: SK-MEL-2 melanoma
SK-MEL-28 melanoma = system: SK-MEL-28 melanoma
SK-MEL-5 melanoma = system: SK-MEL-5 melanoma
SK-OV-3 ovarian = system: SK-OV-3 ovarian
SN12C renal = system: SN12C renal
SNB-19 CNS = system: SNB-19 CNS
SNB-75 CNS = system: SNB-75 CNS
SR leukemia = system: SR leukemia
SW-620 colon = system: SW-620 colon
T-47D breast = system: T-47D breast
TK-10 renal = system: TK-10 renal
U251 CNS = system: U251 CNS
UACC-257 melanoma = system: UACC-257 melanoma
UACC-62 melanoma = system: UACC-62 melanoma
UO-31 renal = system: UO-31 renal

NC(=O)c1ccc(NN=O)nc1
TGI (786-0 renal): > 100 µM
TGI (A498 renal): > 100 µM
TGI (A549 NSCLC): > 100 µM
TGI (ACHN renal): > 100 µM
TGI (BT-549 breast): > 100 µM
TGI (CAKI-1 renal): > 100 µM
TGI (CCRF-CEM leukemia): > 100 µM
TGI (COLO 205 colon): > 100 µM
TGI (DU-145 prostate): > 100 µM
TGI (EKVX NSCLC): > 100 µM
TGI (HCC-2998 colon): > 100 µM
TGI (HCT-116 colon): > 100 µM
TGI (HCT-15 colon): > 100 µM
TGI (HL-60(TB) leukemia): > 100 µM
TGI (HOP-62 NSCLC): > 100 µM
GI50 (HOP-92 NSCLC): > 100 µM
TGI (HOP-92 NSCLC): > 100 µM
TGI (HS 578T breast): > 100 µM
TGI (HT29 colon): > 100 µM
TGI (IGROV1 ovarian): > 100 µM
TGI (K-562 leukemia): > 100 µM
TGI (KM12 colon): > 100 µM
GI50 (LOX IMVI melanoma): > 100 µM
TGI (LOX IMVI melanoma): > 100 µM
TGI (M14 melanoma): > 100 µM
TGI (MALME-3M melanoma): > 100 µM
TGI (MCF7 breast): > 100 µM
TGI (MDA-MB-231 breast): > 100 µM
GI50 (MDA-MB-435): > 100 µM
TGI (MDA-MB-435): > 100 µM
TGI (MDA-N): > 100 µM
TGI (MOLT-4 leukemia): > 100 µM
TGI (NCI-H226 lung): > 100 µM
TGI (NCI-H23 lung): > 100 µM
TGI (NCI-H460 lung): > 100 µM
TGI (NCI-H522 lung): > 100 µM
TGI (NCI/ADR-RES ovarian): > 100 µM
TGI (OVCAR-3 ovarian): > 100 µM
TGI (OVCAR-4 ovarian): > 100 µM
TGI (OVCAR-5 ovarian): > 100 µM
TGI (OVCAR-8 ovarian): > 100 µM
TGI (PC-3 prostate): > 100 µM
GI50 (RPMI-8226 leukemia): > 100 µM
TGI (RPMI-8226 leukemia): > 100 µM
GI50 (RXF 393 renal): > 100 µM
TGI (RXF 393 renal): > 100 µM
TGI (SF-268 CNS): > 100 µM
TGI (SF-295 CNS): > 100 µM
TGI (SF-539 CNS): > 100 µM
GI50 (SK-MEL-2 melanoma): > 100 µM
TGI (SK-MEL-2 melanoma): > 100 µM
TGI (SK-MEL-28 melanoma): > 100 µM
TGI (SK-MEL-5 melanoma): > 100 µM
TGI (SK-OV-3 ovarian): > 100 µM
TGI (SN12C renal): > 100 µM
TGI (SNB-19 CNS): > 100 µM
TGI (SNB-75 CNS): > 100 µM
TGI (SR leukemia): > 100 µM
TGI (SW-620 colon): > 100 µM
TGI (T-47D breast): > 100 µM
TGI (TK-10 renal): > 100 µM
TGI (U251 CNS): > 100 µM
TGI (UACC-257 melanoma): > 100 µM
TGI (UACC-62 melanoma): > 100 µM
TGI (UO-31 renal): > 100 µM

CCC(=O)c1ccc2[nH]c3c(C)c4c(=O)cc(C)[nH]c4c(C)c3c2c1
TGI (786-0 renal): > 100 µM
TGI (A498 renal): > 100 µM
TGI (A549 NSCLC): > 100 µM
TGI (ACHN renal): > 100 µM
TGI (BT-549 breast): > 100 µM
TGI (CAKI-1 renal): > 100 µM
TGI (CCRF-CEM leukemia): > 100 µM
TGI (COLO 205 colon): > 100 µM
TGI (DU-145 prostate): > 100 µM
TGI (EKVX NSCLC): > 100 µM
TGI (HCC-2998 colon): > 100 µM
TGI (HCT-116 colon): > 100 µM
TGI (HCT-15 colon): > 100 µM
TGI (HL-60(TB) leukemia): > 100 µM
TGI (HOP-62 NSCLC): > 100 µM
TGI (HOP-92 NSCLC): 82.3 µM
TGI (HS 578T breast): > 100 µM
TGI (HT29 colon): > 100 µM
TGI (IGROV1 ovarian): > 100 µM
TGI (KM12 colon): > 100 µM
TGI (LOX IMVI melanoma): > 100 µM
TGI (M14 melanoma): > 100 µM
TGI (MALME-3M melanoma): > 100 µM
TGI (MCF7 breast): > 100 µM
TGI (MDA-MB-231 breast): > 100 µM
TGI (MDA-MB-435): > 100 µM
TGI (MDA-N): > 100 µM
TGI (MOLT-4 leukemia): > 100 µM
TGI (NCI-H226 lung): > 100 µM
TGI (NCI-H23 lung): > 100 µM
TGI (NCI-H460 lung): > 100 µM
TGI (NCI-H522 lung): > 100 µM
TGI (NCI/ADR-RES ovarian): > 100 µM
TGI (OVCAR-4 ovarian): > 100 µM
TGI (OVCAR-5 ovarian): > 100 µM
TGI (OVCAR-8 ovarian): > 100 µM
TGI (PC-3 prostate): > 100 µM
TGI (RXF 393 renal): > 100 µM
TGI (SF-268 CNS): > 100 µM
TGI (SF-295 CNS): > 100 µM
TGI (SF-539 CNS): > 100 µM
TGI (SK-MEL-2 melanoma): > 100 µM
TGI (SK-MEL-28 melanoma): > 100 µM
TGI (SK-MEL-5 melanoma): > 100 µM
TGI (SNB-19 CNS): > 100 µM
TGI (SNB-75 CNS): > 100 µM
TGI (SR leukemia): > 100 µM
TGI (SW-620 colon): > 100 µM
TGI (T-47D breast): > 100 µM
TGI (TK-10 renal): > 100 µM
TGI (U251 CNS): > 100 µM
TGI (UACC-257 melanoma): > 100 µM
TGI (UO-31 renal): > 100 µM
